Measured values taken from ChEMBL document CHEMBL5625206, “Design, synthesis, and evaluation of novel pleuromutilin aryl acrylate derivatives as promising broad-spectrum antibiotics especially for combatting multi-drug resistant gram-negative bacteria” (Eur J Med Chem, 2023).
≈ marks a conversion by molar mass, not a printed value.

Columns and labels:
Format in all cases: functional
Escherichia coli = test: Antibacterial activity against Escherichia coli ATCC 25922 assessed as bacterial growth inhibition incubated for 24 hrs by CLSI based broth microdilution method
Staphylococcus aureus [1] = test: Antibacterial activity against methicillin-resistant Staphylococcus aureus ATCC 33591 assessed as bacterial growth inhibition incubated for 24 hrs by CLSI based broth microdilution method
[2] = tested on: Staphylococcus epidermidis; test: Antibacterial activity against Staphylococcus epidermidis ATCC 12228 assessed as bacterial growth inhibition incubated for 24 hrs by CLSI based broth microdilution method
Staphylococcus aureus [3] = test: Antibacterial activity against Staphylococcus aureus ATCC 29213 assessed as bacterial growth inhibition incubated for 24 hrs by CLSI based broth microdilution method
Staphylococcus aureus [4] = test: Antibacterial activity against Staphylococcus aureus ATCC 25923 assessed as bacterial growth inhibition incubated for 24 hrs by CLSI based broth microdilution method
Acinetobacter baumannii = test: Antibacterial activity against Acinetobacter baumannii ATCC 19606 assessed as bacterial growth inhibition incubated for 24 hrs by CLSI based broth microdilution method

| SMILES | MIC (Escherichia coli) [µg/mL] | MIC (Staphylococcus aureus [1]) [µg/mL] | MIC [2] [µg/mL] | MIC (Staphylococcus aureus [3]) [µg/mL] | MIC (Staphylococcus aureus [4]) [µg/mL] | MIC (Acinetobacter baumannii) [µg/mL] |
| --- | --- | --- | --- | --- | --- | --- |
| C=C[C@]1(C)C[C@@H](OC(=O)COC(=O)/C=C/c2ccsc2)[C@]2(C)[C@H](C)CC[C@]3(CCC(=O)[C@H]32)[C@@H](C)[C@@H]1O | 32 (≈ 62.2 µM) | 64 (≈ 124 µM) | 16 (≈ 31.1 µM) | 8 (≈ 15.5 µM) | 32 (≈ 62.2 µM) | 32 (≈ 62.2 µM) |
| C=C[C@]1(C)C[C@@H](OC(=O)COC(=O)/C=C/c2cccs2)[C@]2(C)[C@H](C)CC[C@]3(CCC(=O)[C@H]32)[C@@H](C)[C@@H]1O | 32 (≈ 62.2 µM) | 64 (≈ 124 µM) | 16 (≈ 31.1 µM) | 16 (≈ 31.1 µM) | 32 (≈ 62.2 µM) | 64 (≈ 124 µM) |
| C=C[C@]1(C)C[C@@H](OC(=O)COC(=O)/C=C/c2ccccc2C(F)(F)F)[C@]2(C)[C@H](C)CC[C@]3(CCC(=O)[C@H]32)[C@@H](C)[C@@H]1O | > 128 | 128 (≈ 222 µM) | 64 (≈ 111 µM) | 64 (≈ 111 µM) | 32 (≈ 55.5 µM) | > 128 |
| C=C[C@]1(C)C[C@@H](OC(=O)COC(=O)/C=C/c2ccc(OCc3ccccc3)cc2)[C@]2(C)[C@H](C)CC[C@]3(CCC(=O)[C@H]32)[C@@H](C)[C@@H]1O | > 128 | 128 (≈ 208 µM) | 32 (≈ 52.1 µM) | 32 (≈ 52.1 µM) | 16 (≈ 26 µM) | 64 (≈ 104 µM) |
| C=C[C@]1(C)C[C@@H](OC(=O)COC(=O)/C=C/c2ccccc2)[C@]2(C)[C@H](C)CC[C@]3(CCC(=O)[C@H]32)[C@@H](C)[C@@H]1O | 128 (≈ 252 µM) | 32 (≈ 62.9 µM) | 16 (≈ 31.5 µM) | 16 (≈ 31.5 µM) | 4 (≈ 7.86 µM) | > 128 |
| C=C[C@]1(C)C[C@@H](OC(=O)COC(=O)/C=C/c2ccc(C(F)(F)F)cc2)[C@]2(C)[C@H](C)CC[C@]3(CCC(=O)[C@H]32)[C@@H](C)[C@@H]1O | 64 (≈ 111 µM) | 128 (≈ 222 µM) | 8 (≈ 13.9 µM) | 16 (≈ 27.7 µM) | 16 (≈ 27.7 µM) | > 128 |
| C=C[C@]1(C)C[C@@H](OC(=O)COC(=O)/C=C/c2ccc(OC)c(OC)c2)[C@]2(C)[C@H](C)CC[C@]3(CCC(=O)[C@H]32)[C@@H](C)[C@@H]1O | 64 (≈ 113 µM) | 32 (≈ 56.3 µM) | 16 (≈ 28.1 µM) | 8 (≈ 14.1 µM) | 4 (≈ 7.03 µM) | > 128 |
| C=C[C@]1(C)C[C@@H](OC(=O)COC(=O)/C=C/c2ccc(Cn3ccnc3)cc2)[C@]2(C)[C@H](C)CC[C@]3(CCC(=O)[C@H]32)[C@@H](C)[C@@H]1O | 64 (≈ 109 µM) | 32 (≈ 54.4 µM) | 16 (≈ 27.2 µM) | 16 (≈ 27.2 µM) | 8 (≈ 13.6 µM) | 128 (≈ 217 µM) |
| C=C[C@]1(C)C[C@@H](OC(=O)COC(=O)/C=C/c2ccc(F)c(Cl)c2)[C@]2(C)[C@H](C)CC[C@]3(CCC(=O)[C@H]32)[C@@H](C)[C@@H]1O | 64 (≈ 114 µM) | 64 (≈ 114 µM) | 32 (≈ 57 µM) | 32 (≈ 57 µM) | 16 (≈ 28.5 µM) | > 128 |
| C=C[C@]1(C)C[C@@H](OC(=O)COC(=O)/C=C/c2cccc(Cl)c2)[C@]2(C)[C@H](C)CC[C@]3(CCC(=O)[C@H]32)[C@@H](C)[C@@H]1O | 64 (≈ 118 µM) | 32 (≈ 58.9 µM) | 8 (≈ 14.7 µM) | 32 (≈ 58.9 µM) | 16 (≈ 29.5 µM) | 128 (≈ 236 µM) |
| C=C[C@]1(C)C[C@@H](OC(=O)COC(=O)/C=C/c2ccc(OC)cc2)[C@]2(C)[C@H](C)CC[C@]3(CCC(=O)[C@H]32)[C@@H](C)[C@@H]1O | 32 (≈ 59.4 µM) | 16 (≈ 29.7 µM) | 2 (≈ 3.71 µM) | 8 (≈ 14.9 µM) | 4 (≈ 7.43 µM) | > 128 |
| C=C[C@]1(C)C[C@@H](OC(=O)COC(=O)/C=C/c2ccncc2)[C@]2(C)[C@H](C)CC[C@]3(CCC(=O)[C@H]32)[C@@H](C)[C@@H]1O | 64 (≈ 126 µM) | 32 (≈ 62.8 µM) | 4 (≈ 7.85 µM) | 16 (≈ 31.4 µM) | 8 (≈ 15.7 µM) | 64 (≈ 126 µM) |
| C=C[C@]1(C)C[C@@H](OC(=O)COC(=O)/C=C/c2ccc(C#N)cc2)[C@]2(C)[C@H](C)CC[C@]3(CCC(=O)[C@H]32)[C@@H](C)[C@@H]1O | > 128 | 64 (≈ 120 µM) | 64 (≈ 120 µM) | 64 (≈ 120 µM) | 32 (≈ 60 µM) | > 128 |
| C=C[C@]1(C)C[C@@H](OC(=O)COC(=O)/C=C/c2ccc(C(F)(F)F)cc2F)[C@]2(C)[C@H](C)CC[C@]3(CCC(=O)[C@H]32)[C@@H](C)[C@@H]1O | 128 (≈ 215 µM) | 64 (≈ 108 µM) | 16 (≈ 26.9 µM) | 16 (≈ 26.9 µM) | 8 (≈ 13.5 µM) | > 128 |
| C=C[C@]1(C)C[C@@H](OC(=O)COC(=O)/C=C/c2ccc(-c3ccccc3)cc2)[C@]2(C)[C@H](C)CC[C@]3(CCC(=O)[C@H]32)[C@@H](C)[C@@H]1O | > 128 | 64 (≈ 109 µM) | 32 (≈ 54.7 µM) | 32 (≈ 54.7 µM) | 64 (≈ 109 µM) | > 128 |
| C=C[C@]1(C)C[C@@H](OC(=O)COC(=O)/C=C/c2cccc(F)c2)[C@]2(C)[C@H](C)CC[C@]3(CCC(=O)[C@H]32)[C@@H](C)[C@@H]1O | > 128 | 64 (≈ 122 µM) | 32 (≈ 60.8 µM) | 32 (≈ 60.8 µM) | 16 (≈ 30.4 µM) | > 128 |
| C=C[C@]1(C)C[C@@H](OC(=O)COC(=O)/C=C/c2cc(Br)ccc2F)[C@]2(C)[C@H](C)CC[C@]3(CCC(=O)[C@H]32)[C@@H](C)[C@@H]1O | 64 (≈ 106 µM) | 64 (≈ 106 µM) | 64 (≈ 106 µM) | 32 (≈ 52.8 µM) | 16 (≈ 26.4 µM) | 128 (≈ 211 µM) |
| C=C[C@]1(C)C[C@@H](OC(=O)COC(=O)/C=C/c2ccc(F)cc2)[C@]2(C)[C@H](C)CC[C@]3(CCC(=O)[C@H]32)[C@@H](C)[C@@H]1O | 128 (≈ 243 µM) | 32 (≈ 60.8 µM) | 32 (≈ 60.8 µM) | 32 (≈ 60.8 µM) | 16 (≈ 30.4 µM) | 128 (≈ 243 µM) |
| C=C[C@]1(C)C[C@@H](OC(=O)COC(=O)/C=C/c2cccc(C(F)(F)F)c2)[C@]2(C)[C@H](C)CC[C@]3(CCC(=O)[C@H]32)[C@@H](C)[C@@H]1O | 64 (≈ 111 µM) | 256 (≈ 444 µM) | 64 (≈ 111 µM) | 64 (≈ 111 µM) | 32 (≈ 55.5 µM) | 128 (≈ 222 µM) |
| C=C[C@]1(C)C[C@@H](OC(=O)COC(=O)/C=C/c2ccc(F)c(F)c2F)[C@]2(C)[C@H](C)CC[C@]3(CCC(=O)[C@H]32)[C@@H](C)[C@@H]1O | 64 (≈ 114 µM) | 128 (≈ 228 µM) | 16 (≈ 28.4 µM) | 64 (≈ 114 µM) | 32 (≈ 56.9 µM) | 128 (≈ 228 µM) |
| C=C[C@]1(C)C[C@@H](OC(=O)COC(=O)/C=C/c2ccc3ccccc3c2)[C@]2(C)[C@H](C)CC[C@]3(CCC(=O)[C@H]32)[C@@H](C)[C@@H]1O | > 128 | 128 (≈ 229 µM) | 32 (≈ 57.3 µM) | 32 (≈ 57.3 µM) | 16 (≈ 28.6 µM) | > 128 |
| C=C[C@]1(C)C[C@@H](OC(=O)COC(=O)/C=C/c2ccco2)[C@]2(C)[C@H](C)CC[C@]3(CCC(=O)[C@H]32)[C@@H](C)[C@@H]1O | 64 (≈ 128 µM) | 32 (≈ 64.2 µM) | 8 (≈ 16 µM) | 8 (≈ 16 µM) | 64 (≈ 128 µM) | 64 (≈ 128 µM) |
